Reference: ChEMBL document CHEMBL4373715, “Discovery and Biological Evaluations of Halogenated 2,4-Diphenyl Indeno[1,2-b]pyridinol Derivatives as Potent Topoisomerase IIα-Targeted Chemotherapeutic Agents for Breast Cancer” (J Med Chem, 2019)

Tests used:
DU-145 = assay: Antiproliferative activity against human DU145 cells measured after 72 hrs by EZ-Cytox assay; format: functional, cell-based; settings: DU-145, 72 h
[1] = target: T1, DNA topoisomerase 1 (Homo sapiens) (UniProt P11387); assay: Inhibition of recombinant human topoisomerase 1-mediated relaxation of supercoiled pBR322 DNA at 100 uM measured after 30 mins by ethidium bromide staining based agarose gel electrophoresis relative to control
T1 sequence (whole entry): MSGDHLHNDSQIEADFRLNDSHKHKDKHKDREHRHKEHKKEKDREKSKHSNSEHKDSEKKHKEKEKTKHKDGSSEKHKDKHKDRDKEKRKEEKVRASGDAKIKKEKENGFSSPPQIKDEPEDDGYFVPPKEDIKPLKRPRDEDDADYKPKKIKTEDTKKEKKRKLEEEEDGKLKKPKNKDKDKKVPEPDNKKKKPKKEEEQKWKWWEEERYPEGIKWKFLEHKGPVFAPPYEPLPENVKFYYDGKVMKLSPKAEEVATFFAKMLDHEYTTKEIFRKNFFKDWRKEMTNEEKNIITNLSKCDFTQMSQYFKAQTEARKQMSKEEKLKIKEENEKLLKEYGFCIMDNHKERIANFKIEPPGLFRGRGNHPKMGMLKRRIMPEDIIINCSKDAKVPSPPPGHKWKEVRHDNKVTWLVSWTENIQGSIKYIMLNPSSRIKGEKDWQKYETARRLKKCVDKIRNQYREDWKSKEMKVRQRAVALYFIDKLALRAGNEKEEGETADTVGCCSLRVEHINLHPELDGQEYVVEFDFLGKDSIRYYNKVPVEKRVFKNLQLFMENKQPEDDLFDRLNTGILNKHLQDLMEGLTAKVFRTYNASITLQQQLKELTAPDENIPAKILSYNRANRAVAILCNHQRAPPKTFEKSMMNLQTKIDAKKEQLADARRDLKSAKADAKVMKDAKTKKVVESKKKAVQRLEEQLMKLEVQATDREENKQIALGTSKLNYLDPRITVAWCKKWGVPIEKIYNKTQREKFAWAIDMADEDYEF

HeLa = assay: Antiproliferative activity against human HeLa cells measured after 72 hrs by EZ-Cytox assay; format: functional, cell-based
T47D = assay: Antiproliferative activity against human T47D cells measured after 72 hrs by EZ-Cytox assay; format: functional, cell-based
HCT-15 = assay: Antiproliferative activity against human HCT15 cells measured after 72 hrs by EZ-Cytox assay; format: functional, cell-based; settings: HCT-15, 72 h
[2] = target: DNA topoisomerase 2-alpha (Homo sapiens) (UniProt P11388); assay: Inhibition of recombinant human topoisomerase 2alpha-mediated relaxation of supercoiled pBR322 DNA at 100 uM measured after 30 mins by ethidium bromide staining based agarose gel electrophoresis relative to control
DNA topoisomerase 2-alpha (Homo sapiens), sequence (P11388 whole entry): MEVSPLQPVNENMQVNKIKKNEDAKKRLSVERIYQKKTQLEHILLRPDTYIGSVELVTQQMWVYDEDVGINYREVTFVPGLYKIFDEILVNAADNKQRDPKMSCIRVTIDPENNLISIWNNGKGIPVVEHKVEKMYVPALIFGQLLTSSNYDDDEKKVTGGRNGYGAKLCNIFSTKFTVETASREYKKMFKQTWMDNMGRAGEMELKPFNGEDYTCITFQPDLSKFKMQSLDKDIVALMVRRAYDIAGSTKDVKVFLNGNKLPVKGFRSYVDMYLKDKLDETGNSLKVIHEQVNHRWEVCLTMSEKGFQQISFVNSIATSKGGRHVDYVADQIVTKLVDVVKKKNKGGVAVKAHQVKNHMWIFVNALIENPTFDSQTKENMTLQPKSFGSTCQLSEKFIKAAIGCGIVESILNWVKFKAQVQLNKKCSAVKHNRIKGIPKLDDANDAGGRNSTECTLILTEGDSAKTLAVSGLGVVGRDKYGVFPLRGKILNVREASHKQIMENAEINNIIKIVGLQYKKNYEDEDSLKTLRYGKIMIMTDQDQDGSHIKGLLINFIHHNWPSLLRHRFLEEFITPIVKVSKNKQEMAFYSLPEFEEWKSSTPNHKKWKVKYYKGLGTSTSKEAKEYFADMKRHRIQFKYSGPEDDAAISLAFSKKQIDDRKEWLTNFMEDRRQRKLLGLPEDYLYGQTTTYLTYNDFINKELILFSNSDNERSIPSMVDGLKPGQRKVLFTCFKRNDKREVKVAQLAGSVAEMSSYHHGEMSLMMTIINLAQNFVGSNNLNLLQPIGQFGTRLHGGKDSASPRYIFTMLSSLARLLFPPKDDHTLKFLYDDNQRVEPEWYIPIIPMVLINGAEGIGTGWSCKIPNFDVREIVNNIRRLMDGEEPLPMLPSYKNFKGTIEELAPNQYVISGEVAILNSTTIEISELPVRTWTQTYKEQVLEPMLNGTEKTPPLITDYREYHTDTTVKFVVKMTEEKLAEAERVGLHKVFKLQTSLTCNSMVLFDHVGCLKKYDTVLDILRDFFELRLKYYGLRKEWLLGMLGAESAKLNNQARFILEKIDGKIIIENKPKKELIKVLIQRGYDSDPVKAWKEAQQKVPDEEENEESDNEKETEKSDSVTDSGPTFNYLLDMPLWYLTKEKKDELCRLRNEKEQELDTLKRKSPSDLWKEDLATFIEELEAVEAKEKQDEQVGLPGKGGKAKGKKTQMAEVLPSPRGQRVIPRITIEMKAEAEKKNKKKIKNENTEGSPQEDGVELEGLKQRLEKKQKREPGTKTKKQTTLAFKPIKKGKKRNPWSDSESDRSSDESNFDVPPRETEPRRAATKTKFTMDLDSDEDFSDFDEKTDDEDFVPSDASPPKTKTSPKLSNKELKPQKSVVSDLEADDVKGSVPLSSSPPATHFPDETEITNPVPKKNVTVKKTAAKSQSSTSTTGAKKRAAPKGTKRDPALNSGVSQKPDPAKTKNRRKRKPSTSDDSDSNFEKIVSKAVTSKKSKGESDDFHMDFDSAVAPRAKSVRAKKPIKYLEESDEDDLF

Row | Compound | IC50 (DU-145) [nM] | inhibition [1] [%] | IC50 (HeLa) [nM] | IC50 (T47D) [nM] | IC50 (HCT-15) [nM] | inhibition [2] [%]
1 | Oc1ccc(-c2cc(-c3cccc(C(F)(F)F)c3)nc3c2Cc2cccc(O)c2-3)cc1 | 44100 | 2.3 | 16800 | 9570 | 4770 | 12.9
2 | Oc1ccc(-c2cc(-c3ccccc3)c3c(n2)-c2c(O)cccc2C3)cc1 | 660 | 1.1 | 2060 | 11600 | > 50000 | 3.7
3 | Oc1ccc(-c2cc(-c3ccccc3)c3c(n2)-c2cccc(O)c2C3)cc1 | 370 | 5.3 | 5740 | 6230 | 1020 | 4.4
4 | Oc1cccc(-c2cc(-c3ccccc3)c3c(n2)-c2c(O)cccc2C3)c1 | 430 | 0 | > 50000 | 3680 | > 50000 | 0
5 | Oc1ccc2c(c1)-c1nc(-c3ccccc3O)cc(-c3ccccc3)c1C2 | 1870 | 0 | > 50000 | > 50000 | > 50000 | 2.8
6 | Oc1cccc(-c2cc(-c3ccccc3)nc3c2Cc2cccc(O)c2-3)c1 | 720 | 1.6 | 2030 | 2010 | 1480 | 6.3
7 | Oc1cccc(-c2cc(-c3cccc(F)c3)nc3c2Cc2cccc(O)c2-3)c1 | 940 | 14 | 15000 | 1160 | > 50000 | 17.8
8 | Oc1cccc(-c2cc(-c3ccccc3)c3c(n2)-c2cccc(O)c2C3)c1 | 520 | 0.4 | 6200 | 3920 | 1580 | 4.5
9 | Oc1ccc2c(c1)Cc1c(-c3ccccc3O)cc(-c3cccc(F)c3)nc1-2 | 3130 | 0 | 2430 | 860 | 4230 | 28
10 | Oc1ccc(-c2cc(-c3ccc(F)cc3)nc3c2Cc2cc(O)ccc2-3)cc1 | 1590 | 8 | 3840 | 1850 | 4400 | 17.1
11 | Oc1cccc(-c2cc(-c3ccc(C(F)(F)F)cc3)nc3c2Cc2c(O)cccc2-3)c1 | 5010 | 0.7 | 6300 | 6150 | 6980 | 10.9
12 | Oc1cccc(-c2cc(-c3ccccc3)nc3c2Cc2ccc(O)cc2-3)c1 | 1570 | 0.5 | 1380 | 840 | 1370 | 1.2
13 | Oc1ccc(-c2cc(-c3ccccc3F)nc3c2Cc2c(O)cccc2-3)cc1 | 1810 | 5.4 | 6190 | 870 | 2810 | 15.3
14 | Oc1ccc2c(c1)-c1nc(-c3cccc(F)c3)cc(-c3ccccc3O)c1C2 | 860 | 0 | 4220 | 680 | 2900 | 28.3
15 | Oc1ccc2c(c1)Cc1c(-c3ccccc3)cc(-c3ccccc3O)nc1-2 | 1620 | 2 | > 50000 | > 50000 | > 50000 | 19
16 | Oc1ccc(-c2cc(-c3ccccc3F)nc3c2Cc2ccc(O)cc2-3)cc1 | 14100 | 3.3 | > 50000 | 29200 | > 50000 | 6.4
17 | Oc1ccccc1-c1cc(-c2ccccc2F)nc2c1Cc1c(O)cccc1-2 | 2710 | 0 | 4180 | 1770 | 3390 | 24.1
18 | Oc1cccc(-c2cc(-c3ccc(F)cc3)nc3c2Cc2c(O)cccc2-3)c1 | 560 | 26.2 | 6710 | 1720 | 2680 | 27.8
